Measured values reported in patent publication US8956999B2, “Herbicides” (Syngenta Limited, priority 2007, dated 2015).

How the values were obtained:
Assay type in all cases: in vivo
[1] = test system: Echinochloa crus-galli (ECHCG); test: Example B pre-emergence herbicidal test, glasshouse; conditions: Echinochloa crus-galli, 312 h, rate 250 g/ha, evaluated after 13 days, 100=total damage to plant, 0=no damage to plant, read-out: Pre-Emergence Activity ECHGG
Experimental: (§1) Seeds of a variety of test species were sown in standard soil in pots. After cultivation for one day (pre-emergence) or after 8 days cultivation (post-emergence) under controlled conditions in a glasshouse (at 24/16° C., day/night; 14 hours light; 65% humidity), the plants were sprayed with an aqueous spray solution derived from the formulation of the technical active ingredient in acetone/water (50:50) solution containing 0.5% Tween 20 (polyoxyethelyene sorbitan monolaurate, CAS RN 9005-64-5). The test plants were then grown in a glasshouse under controlled conditions in a glasshouse (at 24/16° C., day/night; 14 hours light; 65% humidity) and watered twice daily. After 13 days for pre and post-emergence, the test was evaluated (100=total damage to plant; 0=no damage to plant). Test Plants: Alopecurus myosuroides (ALOMY), Avena fatua (AVEFA), Setaria faberi (SETFA), Echinochloa crus-galli (ECHCG), Solanum nigrum (SOLNI) and Amaranthus retoflexus (AMARE)

[2] = test system: Amaranthus retoflexus (AMARE); test: as above; conditions: Amaranthus retroflexus, 312 h, rate 250 g/ha, evaluated after 13 days, 100=total damage to plant, 0=no damage to plant
Experimental: as §1

[3] = test system: Avena fatua (AVEFA); test: as above; conditions: 312 h, rate 250 g/ha, evaluated after 13 days, 100=total damage to plant, 0=no damage to plant
Experimental: as §1

[4] = test system: Setaria faberi (SETFA); test: as above; conditions: Setaria faberi, 312 h, rate 250 g/ha, evaluated after 13 days, 100=total damage to plant, 0=no damage to plant, read-out: Pre-Emergence Activity SEFTA
Experimental: as §1

[5] = test system: Alopecurus myosuroides (ALOMY); test: as above; conditions: 312 h, rate 250 g/ha, evaluated after 13 days, 100=total damage to plant, 0=no damage to plant
Experimental: as §1

[6] = test system: Echinochloa crus-galli (ECHCG); test: Example B post-emergence herbicidal test, glasshouse; conditions: 312 h, rate 250 g/ha, evaluated after 13 days, read-out: Post-Emergence Activity ECHGG (100=total damage to plant; 0=no damage to plant)
Experimental: as §1

[7] = test system: Amaranthus retoflexus (AMARE); test: as above; conditions: Amaranthus retroflexus, 312 h, rate 250 g/ha, evaluated after 13 days, read-out: Post-Emergence Activity AMARE (100=total damage to plant; 0=no damage to plant)
Experimental: as §1

[8] = test system: Avena fatua (AVEFA); test: as above; conditions: 312 h, rate 250 g/ha, evaluated after 13 days, read-out: Post-Emergence Activity AVEFA (100=total damage to plant; 0=no damage to plant)
Experimental: as §1

[9] = test system: Setaria faberi (SETFA); test: as above; conditions: 312 h, rate 250 g/ha, evaluated after 13 days, read-out: Post-Emergence Activity SEFTA (100=total damage to plant; 0=no damage to plant)
Experimental: as §1

[10] = test system: Alopecurus myosuroides (ALOMY); test: as above; conditions: 312 h, rate 250 g/ha, evaluated after 13 days, read-out: Post-Emergence Activity ALOMY (100=total damage to plant; 0=no damage to plant)
Experimental: as §1

| SMILES | pest or weed control at 250 g/ha [1] [%] | pest or weed control at 250 g/ha [2] [%] | pest or weed control at 250 g/ha [3] [%] | pest or weed control at 250 g/ha [4] [%] | pest or weed control at 250 g/ha [5] [%] | pest or weed control at 250 g/ha [6] [%] | pest or weed control at 250 g/ha [7] [%] | pest or weed control at 250 g/ha [8] [%] | pest or weed control at 250 g/ha [9] [%] | pest or weed control at 250 g/ha [10] [%] |
| --- | --- | --- | --- | --- | --- | --- | --- | --- | --- | --- |
| Cc1sc(-c2ccc(Br)cc2F)nc1C1C(=O)C(C)(C)OC(C)(C)C1=O [Compound T52] | 80 | 0 | 0 | 100 | 60 | 100 | 0 | 100 | 100 | 100 |
| Cc1sc(-c2ccc(Br)cn2)nc1C1=C(OC(=O)C2CC2)C(C)(C)OC(C)(C)C1=O [Compound P4] | 10 | 0 | 0 | 20 | 0 | 90 | 0 | 0 | 90 | 40 |
| CCc1sc(-c2ccc(Cl)cc2Cl)nc1C1C(=O)C(C)(C)OC(C)(C)C1=O [Compound T53] | 60 | 0 | 0 | 90 | 30 | 100 | 0 | 90 | 100 | 90 |
| Cc1cc(Br)ccc1-c1nc(C2C(=O)C(C)(C)OC(C)(C)C2=O)c(C)s1 [Compound T58] | 50 | 20 | 0 | 100 | 0 | 100 | 0 | 80 | 100 | 90 |
| CCc1sc(-c2ccc(Br)cc2F)nc1C1C(=O)C(C)(C)OC(C)(C)C1=O [Compound T54] | 100 | 20 | 90 | 100 | 100 | 100 | 0 | 100 | 100 | 100 |
| CCc1sc(-c2ccc(Br)cn2)nc1C1C(=O)C(C)(C)OC(C)(C)C1=O [Compound T63] | 30 | 0 | 20 | 20 | 20 | 100 | 0 | 90 | 100 | 80 |
| Cc1sc(-c2ccc(Br)cn2)nc1C1=C(OC(=O)C(C)(C)C)C(C)(C)OC(C)(C)C1=O [Compound P5] | 0 | 0 | 0 | 0 | 0 | 0 | 0 | 0 | 0 | 0 |
| CCc1sc(-c2ccc(SC)cc2)nc1C1C(=O)C(C)(C)OC(C)(C)C1=O [Compound T69] | 20 | 0 | 0 | 20 | 0 | 100 | 0 | 40 | 90 | 60 |
| Cc1sc(-c2ccc(Cl)c(Cl)c2)nc1C1C(=O)C(C)(C)C(=O)C(C)(C)C1=O [Compound T43] | 0 | 0 | 0 | 0 | 0 | 30 | 0 | 0 | 0 | 0 |
| CC(=O)OC1=C(c2nc(-c3ccc(Br)cc3C)sc2C)C(=O)C(C)(C)OC1(C)C [Compound P6] | 70 | 0 | 80 | 100 | 90 | 100 | 0 | 90 | 100 | 100 |
| CCc1sc(-c2ccc(Cl)cc2C)nc1C1C(=O)C(C)(C)OC(C)(C)C1=O [Compound T61] | 100 | 0 | 0 | 100 | 80 | 100 | 0 | 70 | 90 | 90 |
| Cc1cc(-c2nc(C3C(=O)C(C)(C)C(=O)C(C)(C)C3=O)c(C)s2)ccc1Cl [Compound T42] | 40 | 40 | 0 | 0 | 0 | 20 | 0 | 0 | 0 | 0 |
| CC(=O)OC1=C(c2nc(-c3ccc(Br)cn3)sc2C)C(=O)C(C)(C)OC1(C)C [Compound P3] | 30 | 0 | 0 | 20 | 20 | 90 | 0 | 30 | 90 | 50 |
| Cc1sc(-c2ccc(OC(F)F)cc2Cl)nc1C1C(=O)C(C)(C)OC(C)(C)C1=O [Compound T70] | 70 | 0 | 0 | 70 | 30 | 90 | 0 | 10 | 90 | 70 |
| Cc1sc(-c2ccc([S+](C)[O-])cc2)nc1C1C(=O)C(C)(C)OC(C)(C)C1=O (stereo not drawn) [Compound T68] | 20 | 0 | 0 | 20 | 0 | 80 | 0 | 0 | 70 | 0 |
